Source: ChEMBL document CHEMBL4049403, “Oligo-aspartic acid conjugates with benzo[c][2,6]naphthyridine-8-carboxylic acid scaffold as picomolar inhibitors of CK2” (Bioorg Med Chem, 2017)
Where a SMILES comes first, the peptide text is derived from it. The star is where a group is joined. X1 = O=C(O)c1ccc2c(c1)nc(OCCCCCCCCC(=O)*)c1ccncc12

Assays:
[1] = biological target: Mitogen-activated protein kinase 8 (Homo sapiens) (UniProt P45983); assay: Inhibition of human JNK1 assessed as residual activity at 1 uM in presence of [33P]ATP by filter binding assay relative to control
[2] = biological target: Ribosomal protein S6 kinase alpha-5 (Homo sapiens) (UniProt O75582); assay: Inhibition of human MSK1 assessed as residual activity at 1 uM in presence of 33P-ATP by filter-binding assay relative to control
[3] = biological target: Serine/threonine-protein kinase 16 (Homo sapiens) (UniProt O75716); assay: Inhibition of human MPSK1 assessed as residual activity at 1 uM in presence of [33P]ATP by filter binding assay relative to control
[4] = biological target: Serine/threonine-protein kinase SIK2 (Homo sapiens) (UniProt Q9H0K1); assay: Inhibition of human SIK2 assessed as residual activity at 1 uM in presence of [33P]ATP by filter binding assay relative to control
[5] = biological target: NUAK family SNF1-like kinase 1 (Homo sapiens) (UniProt O60285); assay: Inhibition of human NUAK1 assessed as residual activity at 1 uM in presence of [33P]ATP by filter binding assay relative to control
[6] = biological target: Serine/threonine-protein kinase BRSK1 (Homo sapiens) (UniProt Q8TDC3); assay: Inhibition of human BRSK1 assessed as residual activity at 1 uM in presence of 33P-ATP by filter-binding assay relative to control
[7] = biological target: Tyrosine-protein kinase JAK2 (Homo sapiens) (UniProt O60674); assay: Inhibition of human JAK2 assessed as residual activity at 1 uM in presence of [33P]ATP by filter binding assay relative to control
[8] = biological target: Dual specificity testis-specific protein kinase 1 (Homo sapiens) (UniProt Q15569); assay: Inhibition of human TESK1 assessed as residual activity at 1 uM in presence of [33P]ATP by filter binding assay relative to control
[9] = biological target: Misshapen-like kinase 1 (Homo sapiens) (UniProt Q8N4C8); assay: Inhibition of human MINK1 assessed as residual activity at 1 uM in presence of [33P]ATP by filter binding assay relative to control
[10] = biological target: Dual specificity mitogen-activated protein kinase kinase 1 (Homo sapiens) (UniProt Q02750); assay: Inhibition of human MKK1 assessed as residual activity at 1 uM in presence of [33P]ATP by filter binding assay relative to control
[11] = biological target: Dual specificity protein kinase TTK (Homo sapiens) (UniProt P33981); assay: Inhibition of human TTK assessed as residual activity at 1 uM in presence of 33P-ATP by filter-binding assay relative to control
[12] = biological target: Insulin receptor-related protein (Homo sapiens) (UniProt P14616); assay: Inhibition of human IRR assessed as residual activity at 1 uM in presence of [33P]ATP by filter binding assay relative to control
[13] = biological target: Mitogen-activated protein kinase 3 (Homo sapiens) (UniProt P27361); assay: Inhibition of human ERK1 assessed as residual activity at 1 uM in presence of [33P]ATP by filter binding assay relative to control
[14] = biological target: T1, Casein kinase II subunit alpha (Homo sapiens, UniProt P68400); assay: Inhibition of CK2alpha (unknown origin) (1 to 335 residues) using 5-TAMRA-RADDSDDDDD as substrate after 30 mins by fluorescence imaging method
[15] = biological target: Mitogen-activated protein kinase kinase kinase 5 (Homo sapiens) (UniProt Q99683); assay: Inhibition of human ASK1 assessed as residual activity at 1 uM in presence of [33P]ATP by filter binding assay relative to control
[16] = biological target: Ephrin type-B receptor 3 (Homo sapiens) (UniProt P54753); assay: Inhibition of human EPHB3 assessed as residual activity at 1 uM in presence of 33P-ATP by filter-binding assay relative to control
[17] = biological target: T1, Casein kinase II subunit alpha; assay: Inhibition of ARC-1504 binding to CK2alpha (unknown origin) (1 to 335 residues) measured after 15 mins by fluorescence anisotropic method
[18] = biological target: Serine/threonine-protein kinase 24 (Homo sapiens) (UniProt Q9Y6E0); assay: Inhibition of human MST3 assessed as residual activity at 1 uM in presence of [33P]ATP by filter binding assay relative to control
[19] = biological target: Tyrosine-protein kinase ABL1 (Homo sapiens) (UniProt P00519); assay: Inhibition of human ABL assessed as residual activity at 1 uM in presence of [33P]ATP by filter binding assay relative to control
[20] = biological target: SRSF protein kinase 1 (Homo sapiens) (UniProt Q96SB4); assay: Inhibition of human SRPK1 assessed as residual activity at 1 uM in presence of [33P]ATP by filter binding assay relative to control
[21] = biological target: Proto-oncogene tyrosine-protein kinase Src (Homo sapiens) (UniProt P12931); assay: Inhibition of human Src assessed as residual activity at 1 uM in presence of [33P]ATP by filter binding assay relative to control
[22] = biological target: MAP/microtubule affinity-regulating kinase 4 (Homo sapiens) (UniProt Q96L34); assay: Inhibition of human MARK4 assessed as residual activity at 1 uM in presence of [33P]ATP by filter binding assay relative to control
[23] = biological target: Ephrin type-B receptor 2 (Homo sapiens) (UniProt P29323); assay: Inhibition of human EPH-B2 assessed as residual activity at 1 uM in presence of [33P]ATP by filter binding assay relative to control
[24] = biological target: Mitogen-activated protein kinase 14 (Homo sapiens) (UniProt Q16539); assay: Inhibition of human p38a MAPK assessed as residual activity at 1 uM in presence of [33P]ATP by filter binding assay relative to control
[25] = biological target: Serine/threonine-protein kinase Chk2 (Homo sapiens) (UniProt O96017); assay: Inhibition of human CHK2 assessed as residual activity at 1 uM in presence of [33P]ATP by filter binding assay relative to control
[26] = biological target: Ephrin type-A receptor 4 (Homo sapiens) (UniProt P54764); assay: Inhibition of human EPH-A4 assessed as residual activity at 1 uM in presence of [33P]ATP by filter binding assay relative to control
[27] = biological target: Protein-tyrosine kinase 6 (Homo sapiens) (UniProt Q13882); assay: Inhibition of human BRK assessed as residual activity at 1 uM in presence of 33P-ATP by filter-binding assay relative to control
[28] = biological target: Dual specificity tyrosine-phosphorylation-regulated kinase 1A (Homo sapiens) (UniProt Q13627); assay: Inhibition of human DYRK1A assessed as residual activity at 1 uM in presence of 33P-ATP by filter-binding assay relative to control
[29] = biological target: Serine/threonine-protein kinase OSR1 (Homo sapiens) (UniProt O95747); assay: Inhibition of human OSR1 assessed as residual activity at 1 uM in presence of [33P]ATP by filter binding assay relative to control
Serine/threonine-protein kinase OSR1 (Homo sapiens), sequence (O95747 2-527 limits assumed): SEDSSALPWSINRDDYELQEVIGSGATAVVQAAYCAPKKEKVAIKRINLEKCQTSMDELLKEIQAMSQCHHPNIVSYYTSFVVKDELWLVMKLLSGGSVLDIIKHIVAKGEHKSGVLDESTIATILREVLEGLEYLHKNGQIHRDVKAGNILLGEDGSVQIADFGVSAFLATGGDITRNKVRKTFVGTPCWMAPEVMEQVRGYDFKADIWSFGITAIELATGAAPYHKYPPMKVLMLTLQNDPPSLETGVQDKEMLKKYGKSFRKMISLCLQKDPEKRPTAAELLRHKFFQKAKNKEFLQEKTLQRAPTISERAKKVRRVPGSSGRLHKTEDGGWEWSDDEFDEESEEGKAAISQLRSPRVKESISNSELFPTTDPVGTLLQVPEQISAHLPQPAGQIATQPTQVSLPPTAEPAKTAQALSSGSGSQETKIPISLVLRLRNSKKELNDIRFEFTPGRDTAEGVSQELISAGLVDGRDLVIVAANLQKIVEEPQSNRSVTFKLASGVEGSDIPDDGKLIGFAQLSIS

T1 sequence (P68400 whole entry, the tested form may be a part): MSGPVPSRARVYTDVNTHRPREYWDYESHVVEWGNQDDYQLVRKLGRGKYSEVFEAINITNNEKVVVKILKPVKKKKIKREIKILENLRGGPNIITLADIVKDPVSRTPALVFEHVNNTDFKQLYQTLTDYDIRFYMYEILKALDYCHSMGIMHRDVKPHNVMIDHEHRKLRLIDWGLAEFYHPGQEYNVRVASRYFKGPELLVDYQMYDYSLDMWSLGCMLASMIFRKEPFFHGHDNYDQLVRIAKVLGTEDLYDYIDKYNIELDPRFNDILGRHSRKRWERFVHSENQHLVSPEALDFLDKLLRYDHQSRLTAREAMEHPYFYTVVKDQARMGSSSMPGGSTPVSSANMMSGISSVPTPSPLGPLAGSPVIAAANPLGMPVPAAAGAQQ
Dual specificity testis-specific protein kinase 1 (Homo sapiens), sequence (Q15569 whole entry, looked up): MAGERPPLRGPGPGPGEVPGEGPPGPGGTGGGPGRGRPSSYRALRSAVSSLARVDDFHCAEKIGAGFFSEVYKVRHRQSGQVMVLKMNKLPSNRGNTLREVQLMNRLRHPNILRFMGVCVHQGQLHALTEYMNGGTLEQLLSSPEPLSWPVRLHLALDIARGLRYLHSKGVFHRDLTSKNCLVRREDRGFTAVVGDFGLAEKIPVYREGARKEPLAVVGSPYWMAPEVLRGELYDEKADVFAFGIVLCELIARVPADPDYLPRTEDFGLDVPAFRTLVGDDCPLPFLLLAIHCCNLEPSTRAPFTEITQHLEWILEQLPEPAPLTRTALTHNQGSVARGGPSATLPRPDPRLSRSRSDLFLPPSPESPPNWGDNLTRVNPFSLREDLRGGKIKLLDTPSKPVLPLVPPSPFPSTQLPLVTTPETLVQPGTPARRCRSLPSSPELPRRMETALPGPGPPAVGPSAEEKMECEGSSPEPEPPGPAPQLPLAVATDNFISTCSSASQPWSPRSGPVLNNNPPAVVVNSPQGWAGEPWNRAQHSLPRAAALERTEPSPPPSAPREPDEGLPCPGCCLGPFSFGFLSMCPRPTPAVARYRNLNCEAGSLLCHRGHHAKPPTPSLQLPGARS
Serine/threonine-protein kinase 16 (Homo sapiens), sequence (O75716 whole entry): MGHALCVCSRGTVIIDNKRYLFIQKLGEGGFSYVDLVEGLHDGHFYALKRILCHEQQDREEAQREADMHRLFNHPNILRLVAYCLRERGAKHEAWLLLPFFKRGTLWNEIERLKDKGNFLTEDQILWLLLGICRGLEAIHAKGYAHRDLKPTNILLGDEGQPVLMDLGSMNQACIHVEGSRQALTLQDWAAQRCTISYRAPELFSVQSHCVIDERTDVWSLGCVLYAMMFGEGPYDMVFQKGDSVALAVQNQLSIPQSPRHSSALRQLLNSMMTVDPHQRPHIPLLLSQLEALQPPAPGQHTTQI
Serine/threonine-protein kinase BRSK1 (Homo sapiens), sequence (Q8TDC3 whole entry): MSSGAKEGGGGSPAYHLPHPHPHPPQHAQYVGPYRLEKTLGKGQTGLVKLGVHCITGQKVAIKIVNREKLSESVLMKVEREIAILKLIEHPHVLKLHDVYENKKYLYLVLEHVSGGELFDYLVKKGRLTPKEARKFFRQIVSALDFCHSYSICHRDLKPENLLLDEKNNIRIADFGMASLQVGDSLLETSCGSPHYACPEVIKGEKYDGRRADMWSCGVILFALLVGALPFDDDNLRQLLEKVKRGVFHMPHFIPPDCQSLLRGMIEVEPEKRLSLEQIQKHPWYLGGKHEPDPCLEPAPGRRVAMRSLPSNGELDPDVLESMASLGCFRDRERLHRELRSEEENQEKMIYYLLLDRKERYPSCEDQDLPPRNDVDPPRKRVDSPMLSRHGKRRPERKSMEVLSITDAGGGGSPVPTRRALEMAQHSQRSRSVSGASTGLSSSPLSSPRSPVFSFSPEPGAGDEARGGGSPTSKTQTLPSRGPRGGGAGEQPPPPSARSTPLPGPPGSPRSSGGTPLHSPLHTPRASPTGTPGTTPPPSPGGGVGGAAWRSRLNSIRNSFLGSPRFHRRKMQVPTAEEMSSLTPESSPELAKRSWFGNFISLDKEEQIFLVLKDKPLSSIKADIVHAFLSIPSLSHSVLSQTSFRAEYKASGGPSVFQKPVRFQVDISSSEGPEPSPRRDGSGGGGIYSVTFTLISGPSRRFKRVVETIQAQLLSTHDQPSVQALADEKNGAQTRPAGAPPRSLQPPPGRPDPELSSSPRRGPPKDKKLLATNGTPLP
NUAK family SNF1-like kinase 1 (Homo sapiens), sequence (O60285 whole entry): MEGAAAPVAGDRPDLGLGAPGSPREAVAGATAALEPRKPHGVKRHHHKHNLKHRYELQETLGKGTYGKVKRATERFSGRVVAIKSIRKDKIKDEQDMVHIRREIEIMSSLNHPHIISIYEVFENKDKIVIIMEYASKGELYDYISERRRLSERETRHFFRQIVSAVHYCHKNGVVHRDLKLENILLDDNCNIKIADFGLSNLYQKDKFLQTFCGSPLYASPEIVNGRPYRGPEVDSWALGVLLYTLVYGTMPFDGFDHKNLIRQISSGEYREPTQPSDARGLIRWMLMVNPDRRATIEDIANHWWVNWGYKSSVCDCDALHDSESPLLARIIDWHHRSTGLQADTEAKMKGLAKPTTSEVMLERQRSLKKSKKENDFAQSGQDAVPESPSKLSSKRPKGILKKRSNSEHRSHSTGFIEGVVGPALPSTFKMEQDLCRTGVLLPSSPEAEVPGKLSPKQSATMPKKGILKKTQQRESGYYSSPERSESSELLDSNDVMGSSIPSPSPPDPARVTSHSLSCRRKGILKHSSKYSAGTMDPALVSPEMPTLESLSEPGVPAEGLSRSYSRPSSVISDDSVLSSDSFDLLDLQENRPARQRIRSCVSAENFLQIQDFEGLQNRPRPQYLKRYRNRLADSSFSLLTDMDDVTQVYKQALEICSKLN
Ephrin type-B receptor 2 (Homo sapiens), sequence (P29323 whole entry): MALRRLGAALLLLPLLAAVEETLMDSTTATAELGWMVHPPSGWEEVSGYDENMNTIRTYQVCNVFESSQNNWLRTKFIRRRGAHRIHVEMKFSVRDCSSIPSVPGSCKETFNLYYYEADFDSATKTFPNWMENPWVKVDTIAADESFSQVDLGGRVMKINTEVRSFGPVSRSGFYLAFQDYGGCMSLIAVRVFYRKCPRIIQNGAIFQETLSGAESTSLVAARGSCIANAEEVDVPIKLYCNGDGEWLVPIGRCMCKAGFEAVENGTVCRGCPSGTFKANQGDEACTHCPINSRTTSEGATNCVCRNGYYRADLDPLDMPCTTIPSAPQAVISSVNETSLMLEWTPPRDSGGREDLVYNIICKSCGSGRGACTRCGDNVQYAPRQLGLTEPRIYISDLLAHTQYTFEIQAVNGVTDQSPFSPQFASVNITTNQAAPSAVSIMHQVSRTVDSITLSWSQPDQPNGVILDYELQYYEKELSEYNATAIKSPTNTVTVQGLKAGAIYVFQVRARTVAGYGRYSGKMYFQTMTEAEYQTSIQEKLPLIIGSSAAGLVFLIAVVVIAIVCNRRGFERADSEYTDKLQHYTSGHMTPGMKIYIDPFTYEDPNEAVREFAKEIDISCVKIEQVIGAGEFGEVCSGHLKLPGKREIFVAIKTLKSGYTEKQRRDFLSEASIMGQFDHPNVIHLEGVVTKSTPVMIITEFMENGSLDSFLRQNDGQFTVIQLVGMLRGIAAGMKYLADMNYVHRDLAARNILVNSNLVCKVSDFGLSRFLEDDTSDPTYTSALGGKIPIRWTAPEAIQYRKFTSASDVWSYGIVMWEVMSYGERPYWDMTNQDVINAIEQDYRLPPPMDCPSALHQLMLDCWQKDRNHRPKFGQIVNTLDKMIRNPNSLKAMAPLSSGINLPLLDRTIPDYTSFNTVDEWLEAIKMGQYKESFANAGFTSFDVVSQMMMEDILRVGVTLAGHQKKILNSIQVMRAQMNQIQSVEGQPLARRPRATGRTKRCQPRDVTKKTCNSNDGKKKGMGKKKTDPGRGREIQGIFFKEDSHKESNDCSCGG
Mitogen-activated protein kinase 3 (Homo sapiens), sequence (P27361 whole entry, the tested form may be a part): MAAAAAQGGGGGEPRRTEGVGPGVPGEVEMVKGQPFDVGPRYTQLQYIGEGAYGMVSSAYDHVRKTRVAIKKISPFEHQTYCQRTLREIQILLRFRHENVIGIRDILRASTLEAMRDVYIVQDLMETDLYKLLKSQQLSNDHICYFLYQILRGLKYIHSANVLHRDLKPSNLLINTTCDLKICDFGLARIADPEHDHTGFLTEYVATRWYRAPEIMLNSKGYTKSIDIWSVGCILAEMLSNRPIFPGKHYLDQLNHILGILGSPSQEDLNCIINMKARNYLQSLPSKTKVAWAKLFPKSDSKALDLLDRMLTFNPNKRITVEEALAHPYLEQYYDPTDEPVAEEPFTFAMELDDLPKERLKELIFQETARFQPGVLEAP

Activity [1]: 91% | Activity [2]: 58% | Activity [3]: 118% | Activity [4]: 99% | Activity [5]: 75% | Activity [6]: 63% | Activity [7]: 72% | Activity [8]: 94% | Activity [9]: 100% | Activity [10]: 86% | Activity [11]: 48% | Activity [12]: 92% | Activity [13]: 106% | IC50 [14]: 4 nM | Activity [15]: 118% | Activity [16]: 56% | Kd ([17]; read-out: Kd): 0.037 nM | Kd ([17]; read-out: pKd (converted)): 0.0316 nM | Activity [18]: 93% | Activity [19]: 100% | Activity [20]: 86% | Activity [21]: 67% | Activity [22]: 91% | Activity [23]: 96% | Activity [24]: 89% | Activity [25]: 92% | Activity [26]: 104% | Activity [27]: 51% | Activity [28]: 9% | Activity [29]: 111%
SMILES: NCCCC[C@H](NC(=O)[C@H](CC(=O)O)NC(=O)[C@H](CC(=O)O)NC(=O)[C@H](CC(=O)O)NC(=O)[C@H](CC(=O)O)NC(=O)[C@H](CC(=O)O)NC(=O)[C@H](CC(=O)O)NC(=O)CCCCCCCCOc1nc2cc(C(=O)O)ccc2c2cnccc12)C(=O)O (X1-DDDDDDK-OH)
